Assay results reported in ChEMBL document CHEMBL1201862, “PubChem BioAssay data set” (2004).
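Interpolation was linear, between the two tested concentrations surrounding the appropriate level; five concentrations were tested over 48 hours in 96-well plates. GI50 marks 50% less growth.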 Active and inactive are the calls of the source. No stated cut-off is given here; in the data, active = GI50 up to about 1.1 µM and inactive = higher.

Assays:
Experiment in all cases: NCI tumour cell line growth inhibition, 48 h
[1] = tested on: UACC-62
[2] = tested on: NCI-H226
[3] = tested on: SNB-75
[4] = tested on: SF-268
[5] = tested on: SF-539
[6] = tested on: U-251
[7] = tested on: NCI-H460
[8] = tested on: SNB-78
[9] = tested on: KM12
[10] = tested on: OVCAR-8
[11] = tested on: DMS-114
[12] = tested on: HOP-62
[13] = tested on: MOLT-4
[14] = tested on: DLD-1
[15] = tested on: SW-620
[16] = tested on: DU-145
[17] = tested on: MDA-MB-231
[18] = tested on: MDA-N
[19] = tested on: NCI/ADR-RES
[20] = tested on: T47D

Row | SMILES | GI50 [1] | GI50 [2] | GI50 [3] | GI50 [4] | GI50 [5] | GI50 [6] | GI50 [7] | GI50 [8] | GI50 [9] | GI50 [10] | GI50 [11] | GI50 [12] | GI50 [13] | GI50 [14] | GI50 [15] | GI50 [16] | GI50 [17] | GI50 [18] | GI50 [19] | GI50 [20]
1 | CCCCC1CC(c2cccc([N+](=O)[O-])c2)=NO1 (configuration not stated) | 54.8 µM (inactive) | > 100 µM (inactive) | > 100 µM (inactive) | > 100 µM (inactive) | > 100 µM (inactive) | 83.2 µM (inactive) | 75.5 µM (inactive) | > 100 µM (inactive) | > 100 µM (inactive) | 70.3 µM (inactive) | 40.6 µM (inactive) | > 100 µM (inactive) | 36.4 µM (inactive) | > 100 µM (inactive) | > 100 µM (inactive) | – | – | – | – | –
2 | C=C(C)C1CC[C@]2(C(=O)O)CCC3(C)[C@H](CCC4[C@@]5(C)CC[C@H](OC6OC(CO)C(O)C6OC6OC(C)C(O)C(O)C6O)[C@@](C)(CO)C5CC[C@]43C)C12 (some centres not stated) | > 100 µM (inactive) | > 100 µM (inactive) | > 100 µM (inactive) | > 100 µM (inactive) | > 100 µM (inactive) | > 100 µM (inactive) | > 100 µM (inactive) | > 100 µM (inactive) | > 100 µM (inactive) | > 100 µM (inactive) | > 100 µM (inactive) | > 100 µM (inactive) | > 100 µM (inactive) | 33.9 µM (inactive) | > 100 µM (inactive) | – | – | – | – | –
3 | CN(/N=C/c1ccnc2ccccc12)c1ccc([N+](=O)[O-])cc1[N+](=O)[O-] | > 100 µM (inactive) | > 100 µM (inactive) | 20.7 µM (inactive) | > 100 µM (inactive) | 89.5 µM (inactive) | > 100 µM (inactive) | > 100 µM (inactive) | 42.3 µM (inactive) | > 100 µM (inactive) | > 100 µM (inactive) | > 100 µM (inactive) | 30.3 µM (inactive) | > 100 µM (inactive) | > 100 µM (inactive) | > 100 µM (inactive) | – | – | – | – | –
4 | CC(=O)/C=C/c1ccc(C)cc1 | > 100 µM (inactive) | > 100 µM (inactive) | > 100 µM (inactive) | > 100 µM (inactive) | > 100 µM (inactive) | > 100 µM (inactive) | > 100 µM (inactive) | > 100 µM (inactive) | > 100 µM (inactive) | > 100 µM (inactive) | > 100 µM (inactive) | > 100 µM (inactive) | > 100 µM (inactive) | > 100 µM (inactive) | > 100 µM (inactive) | – | – | – | – | –
5 | COc1ccc2c(c1)CC1c3c(cc4c(c3-2)OCO4)CCN1C (configuration not stated) | 21.6 µM (inactive) | 24.6 µM (inactive) | 22.6 µM (inactive) | > 10 µM (inactive) | 31.3 µM (inactive) | 31.6 µM (inactive) | 24.3 µM (inactive) | 40.7 µM (inactive) | 30.9 µM (inactive) | 21.6 µM (inactive) | 24.3 µM (inactive) | 30.1 µM (inactive) | 20 µM (inactive) | 41.9 µM (inactive) | 19.5 µM (inactive) | – | – | – | – | –
6 | CCOC(=O)c1c(C(F)(F)F)oc2c1ccc1nc3nonc3nc12 | 15 µM (inactive) | 19.9 µM (inactive) | 13.2 µM (inactive) | 17.9 µM (inactive) | 16.2 µM (inactive) | 15.7 µM (inactive) | 23.3 µM (inactive) | 14.7 µM (inactive) | 19.3 µM (inactive) | 16.3 µM (inactive) | 23.7 µM (inactive) | 13.8 µM (inactive) | 2.54 µM (inactive) | 14.3 µM (inactive) | 16.8 µM (inactive) | – | – | – | – | –
7 | COC(=O)NC1C(C)OC(OC2C/C=C(/C)C3C=CC4C(OC5CC(OC6CCC(OC7CC(O)C(OC8CCC(O)C(C)O8)C(C)O7)C(C)O6)C(OC(C)=O)C(C)O5)C(C)CC(C)C4C3(C)/C(O)=C3/C(=O)OC4(CC(C=O)=CC(O)C4/C=C\2C)C3=O)CC1(C)[N+](=O)[O-] (configuration not stated) | 0.552 µM (active) | 1.06 µM (active) | 1.75 µM (inactive) | 0.719 µM (active) | 0.34 µM (active) | 0.342 µM (active) | 0.778 µM (active) | 1.82 µM (inactive) | 0.809 µM (active) | 1 µM (active) | 0.385 µM (active) | 0.767 µM (active) | 0.474 µM (active) | 2.45 µM (inactive) | 0.989 µM (active) | 1.58 µM (inactive) | 755 nM (active) | 661 nM (active) | 6.17 µM (inactive) | 2.06 µM (inactive)
8 | CCc1cccc(C)c1NC(=O)CC1Sc2ccccc2NC1=O (configuration not stated) | 46.9 µM (inactive) | 16 µM (inactive) | 10.7 µM (inactive) | 50.7 µM (inactive) | 31.9 µM (inactive) | 31.5 µM (inactive) | 34.4 µM (inactive) | 34.4 µM (inactive) | 34.9 µM (inactive) | 65.5 µM (inactive) | 57.3 µM (inactive) | 15.1 µM (inactive) | 29.2 µM (inactive) | 28.4 µM (inactive) | 37.8 µM (inactive) | – | – | – | – | –
9 | C(/C=C/N1CCCC1)=C\c1nc(N2CCCC2)c2ccccc2n1 | 21.2 µM (inactive) | 16.7 µM (inactive) | 16.6 µM (inactive) | 23.9 µM (inactive) | 18.3 µM (inactive) | – | 18.2 µM (inactive) | 20.7 µM (inactive) | 17.1 µM (inactive) | 34.1 µM (inactive) | 18.5 µM (inactive) | 19.5 µM (inactive) | 17.3 µM (inactive) | 18.7 µM (inactive) | 14.3 µM (inactive) | – | – | – | – | –
10 | C1OCC2S[C@@H]3COCO[C@@H]3C2O1 (some centres not stated) | > 100 µM (inactive) | > 100 µM (inactive) | > 100 µM (inactive) | > 100 µM (inactive) | > 100 µM (inactive) | > 100 µM (inactive) | > 100 µM (inactive) | > 100 µM (inactive) | > 100 µM (inactive) | > 100 µM (inactive) | > 100 µM (inactive) | > 100 µM (inactive) | > 100 µM (inactive) | > 100 µM (inactive) | – | – | – | – | – | –
11 | CC(=O)Oc1c(Br)ccc2cc(C(Br)Br)c(C(=O)c3ccccc3)nc12 | 20 µM (inactive) | 19.7 µM (inactive) | 20.5 µM (inactive) | 25.7 µM (inactive) | 18.6 µM (inactive) | 19.2 µM (inactive) | 19.9 µM (inactive) | 27.7 µM (inactive) | 19.6 µM (inactive) | 23.6 µM (inactive) | 24.8 µM (inactive) | 19.1 µM (inactive) | 20.7 µM (inactive) | 24 µM (inactive) | 22.4 µM (inactive) | – | – | – | – | –
12 | COc1ccc(C2(Cl)C(Cl)(C(F)(F)F)C2(Cl)C(F)(F)F)cc1 (configuration not stated) | 13.6 µM (inactive) | 15.5 µM (inactive) | 14.9 µM (inactive) | 15.6 µM (inactive) | 15.2 µM (inactive) | 14.9 µM (inactive) | 15.9 µM (inactive) | 14.7 µM (inactive) | 14 µM (inactive) | 12.6 µM (inactive) | 12.5 µM (inactive) | 18.4 µM (inactive) | 2.62 µM (inactive) | 15.7 µM (inactive) | 15 µM (inactive) | – | – | – | – | –
13 | CC(C)N(C(=O)C12C3C4C1C1C2C3C41C#N)C(C)C (configuration not stated) | > 100 µM (inactive) | > 100 µM (inactive) | > 84.7 µM (inactive) | > 100 µM (inactive) | > 100 µM (inactive) | > 100 µM (inactive) | > 100 µM (inactive) | > 100 µM (inactive) | > 100 µM (inactive) | > 100 µM (inactive) | > 100 µM (inactive) | > 100 µM (inactive) | > 100 µM (inactive) | > 72.8 µM (inactive) | > 54.5 µM (inactive) | – | – | – | – | –
14 | CN(C(=O)C1CC1)C1C2CN3CCC(O2)C13 (configuration not stated) | > 100 µM (inactive) | > 100 µM (inactive) | > 100 µM (inactive) | > 100 µM (inactive) | > 100 µM (inactive) | > 100 µM (inactive) | > 100 µM (inactive) | 94.4 µM (inactive) | > 100 µM (inactive) | – | > 100 µM (inactive) | > 100 µM (inactive) | > 100 µM (inactive) | > 100 µM (inactive) | > 100 µM (inactive) | – | – | – | – | –
15 | Nc1ccc(C(=O)NN2C(=O)C(Cl)C2c2ccccc2O)cc1 (configuration not stated) | 72.3 µM (inactive) | 69.2 µM (inactive) | 52.2 µM (inactive) | 70.1 µM (inactive) | 85.9 µM (inactive) | 36 µM (inactive) | 21.4 µM (inactive) | > 100 µM (inactive) | 82.6 µM (inactive) | 42.3 µM (inactive) | 21.1 µM (inactive) | 65.2 µM (inactive) | 22.5 µM (inactive) | 54.3 µM (inactive) | 73.6 µM (inactive) | – | – | – | – | –
16 | CC(C)(C)OC(=O)Cc1ccc2c(ccn2Cc2ccccc2)c1 | 69 µM (inactive) | 35.7 µM (inactive) | > 100 µM (inactive) | 66.4 µM (inactive) | 93.5 µM (inactive) | 19.8 µM (inactive) | 68.2 µM (inactive) | > 100 µM (inactive) | 64.3 µM (inactive) | 60.3 µM (inactive) | 18.7 µM (inactive) | > 100 µM (inactive) | 18 µM (inactive) | 57.3 µM (inactive) | 67.1 µM (inactive) | – | – | – | – | –
17 | O=C(/C=C/c1ccccc1)c1ccc(Cl)cc1Cl | 15.9 µM (inactive) | 29.9 µM (inactive) | 30.8 µM (inactive) | 28.4 µM (inactive) | 20.8 µM (inactive) | 19.6 µM (inactive) | 17.6 µM (inactive) | 22.6 µM (inactive) | 15.9 µM (inactive) | 15.1 µM (inactive) | 17.3 µM (inactive) | 94.4 µM (inactive) | 18.1 µM (inactive) | 17.1 µM (inactive) | 4.8 µM (inactive) | – | – | – | – | –
